Experiments:
HepG2 [1] = test: Induction of cell cycle arrest in human HepG2 cells assessed as accumulation of cells at S phase at antiproliferative IC50 by PI staining based flow cytometric analysis (reference value: 34.03%); type: functional
HepG2 [2] = test: Induction of apoptosis in human HepG2 cells assessed as necrotic cells at antiproliferative IC50 incubated for 24 hrs by annexin V FITC and propidium iodide staining based flow cytometry (reference value: 0.52 %); type: functional
HepG2 [3] = test: Induction of cell cycle arrest in human HepG2 cells assessed as aggregates at antiproliferative IC50 by PI staining based flow cytometric analysis (reference value: 1.52%); type: functional; details: time 24 hrs
HCT-116 [4] = test: Induction of cell cycle arrest in human HCT-116 cells assessed as accumulation of cells at G2/M phase at antiproliferative IC50 by PI staining based flow cytometric analysis (reference value: 15.87%); type: functional
[5] = molecular target: Epidermal growth factor receptor (Homo sapiens, UniProt P00533); test: Inhibition of EGFR-TK (unknown origin) relative to control
HCT-116 [6] = test: Induction of apoptosis in human HCT-116 cells assessed as early apoptotic cells at antiproliferative IC50 incubated for 24 hrs by annexin V FITC and propidium iodide staining based flow cytometry (reference value: 0.41 %); type: functional
MCF7 [7] = test: Induction of cell cycle arrest in human MCF7 cells assessed as accumulation of cells at Pre-G1 phase at antiproliferative IC50 by PI staining based flow cytometric analysis (reference value: 1.78%); type: functional
[8] = molecular target: Vascular endothelial growth factor receptor 2 (Homo sapiens, UniProt P35968)
Description: Inhibition of VEGFR-2 (unknown origin) relative to control

HepG2 [9] = test: Induction of cell cycle arrest in human HepG2 cells assessed as accumulation of cells at G2/M phase at antiproliferative IC50 by PI staining based flow cytometric analysis (reference value: 14.09%); type: functional
HepG2 [10] = test: Antitumor activity against human HepG2 cells assessed as inhibition of cell viability by MTT assay; type: functional, cell-based
[11] = molecular target: T1, Casein kinase II subunit alpha (Homo sapiens, UniProt P68400); test: Inhibition of CK2 alpha (unknown origin) relative to control
Target sequence in this assay (P68400 whole entry): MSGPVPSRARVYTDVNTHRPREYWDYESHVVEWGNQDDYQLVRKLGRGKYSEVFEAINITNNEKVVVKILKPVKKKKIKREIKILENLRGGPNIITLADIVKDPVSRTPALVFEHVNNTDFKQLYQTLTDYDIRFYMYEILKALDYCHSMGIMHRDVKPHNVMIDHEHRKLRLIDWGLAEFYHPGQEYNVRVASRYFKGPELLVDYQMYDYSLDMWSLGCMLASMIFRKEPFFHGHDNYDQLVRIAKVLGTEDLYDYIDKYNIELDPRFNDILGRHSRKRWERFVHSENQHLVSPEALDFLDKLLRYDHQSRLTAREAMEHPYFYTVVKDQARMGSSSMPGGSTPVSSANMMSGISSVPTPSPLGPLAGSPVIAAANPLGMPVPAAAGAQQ

HepG2 [12] = test: Induction of cell cycle arrest in human HepG2 cells assessed as accumulation of cells at Pre-G1 phase at antiproliferative IC50 by PI staining based flow cytometric analysis (reference value: 1.44%); type: functional
HepG2 [13] = test: Induction of apoptosis in human HepG2 cells assessed as increase in Bax protein expression by Western blot analysis relative to untreated control; type: functional
MCF7 [14] = test: Induction of apoptosis in human MCF-7 cells assessed as increase in Bax protein expression by Western blot analysis relative to untreated control; type: functional
Tubulin = test: Inhibition of tubulin polymerization (unknown origin) relative to control; type: protein-complex assay, Homo sapiens
HCT-116 [15] = test: Induction of cell cycle arrest in human HCT-116 cells assessed as accumulation of cells at Pre-G1 phase at antiproliferative IC50 by PI staining based flow cytometric analysis (reference value: 1.19%); type: functional
WI-38 = test: Cytotoxicity against human WI38 cells assessed as reduction in cell viability by MTT assay; type: cell-based
HepG2 [16] = test: Induction of apoptosis in human HepG2 cells assessed as early apoptotic cells at antiproliferative IC50 incubated for 24 hrs by annexin V FITC and propidium iodide staining based flow cytometry (reference value: 0.61 %); type: functional
MCF7 [17] = test: Induction of apoptosis in human MCF-7 cells assessed as decrease in Bcl-2 protein expression by Western blot analysis relative to untreated control; type: functional
MCF7 [18] = test: Induction of cell cycle arrest in human MCF7 cells assessed as accumulation of cells at G0/G1 phase at antiproliferative IC50 by PI staining based flow cytometric analysis (reference value: 56.14%); type: functional
MCF7 [19] = test: Induction of cell cycle arrest in human MCF7 cells assessed as accumulation of cells at G2/M phase at antiproliferative IC50 by PI staining based flow cytometric analysis (reference value: 10.95%); type: functional
DNA topoisomerase 2-beta = DNA topoisomerase 2-beta (Homo sapiens, UniProt Q02880); test: Inhibition of Topoisomerase II beta (unknown origin) relative to control
HCT-116 [20] = test: Induction of cell cycle arrest in human HCT-116 cells assessed as accumulation of cells at S phase at antiproliferative IC50 by PI staining based flow cytometric analysis (reference value: 35.61%); type: functional
HCT-116 [21] = test: Induction of apoptosis in human HCT-116 cells assessed as increase in Bax protein expression by Western blot analysis relative to untreated control; type: functional
HCT-116 [22] = test: Induction of apoptosis in human HCT-116 cells assessed as late apoptotic cells at antiproliferative IC50 incubated for 24 hrs by annexin V FITC and propidium iodide staining based flow cytometry (reference value: 0.19 %); type: functional
MCF7 [23] = test: Induction of cell cycle arrest in human MCF7 cells assessed as accumulation of cells at S phase at antiproliferative IC50 by PI staining based flow cytometric analysis (reference value: 32.91%); type: functional
[24] = molecular target: T1, Casein kinase II subunit alpha; test: Inhibition of CK2 alpha (unknown origin) at 10 uM relative to control
Target sequence in this assay (P68400 whole entry, looked up): as the sequence (P68400 whole entry) above

MCF7 [25] = test: Induction of apoptosis in human MCF7 cells assessed as necrotic cells at antiproliferative IC50 incubated for 24 hrs by annexin V FITC and propidium iodide staining based flow cytometry (reference value: 1.11 %); type: functional
HepG2 [26] = test: Induction of apoptosis in human HepG2 cells assessed as decrease in Bcl-2 protein expression by Western blot analysis relative to untreated control; type: functional
HepG2 [27] = test: Induction of cell cycle arrest in human HepG2 cells assessed as cell debris at antiproliferative IC50 by PI staining based flow cytometric analysis (reference value: 1.52%); type: functional; details: time 24 hrs
HepG2 [28] = test: Induction of apoptosis in human HepG2 cells assessed as late apoptotic cells at antiproliferative IC50 incubated for 24 hrs by annexin V FITC and propidium iodide staining based flow cytometry (reference value: 0.31 %); type: functional
MCF7 [29] = test: Antitumor activity against human MCF7 cells assessed as inhibition of cell viability by MTT assay; type: functional, cell-based
MCF7 [30] = test: Induction of cell cycle arrest in human MCF7 cells assessed as cell debris at antiproliferative IC50 by PI staining based flow cytometric analysis (reference value: 1.63%); type: functional; details: time 24 hrs
WISH = test: Cytotoxicity against human WISH cells assessed as reduction in cell viability by MTT assay; type: cell-based
MCF7 [31] = test: Induction of apoptosis in human MCF-7 cells assessed as increase in caspase-9 level after 24 hrs by Western blot analysis relative to untreated control; type: functional
HCT-116 [32] = test: Induction of apoptosis in human HCT-116 cells assessed as decrease in Bcl-2 protein expression by Western blot analysis relative to untreated control; type: functional
Tubulin (Homo sapiens) = Tubulin (Homo sapiens) (UniProt P68371+Q9H4B7+P0DPH7+P68366+Q13509+Q71U36+P04350+Q3ZCM7+P07437+P68363+Q9BQE3+Q6PEY2+Q13885+Q9BVA1+Q9BUF5); test: Inhibition of tubulin polymerization (unknown origin) at 10 uM relative to control; type: protein-complex assay
HepG2 [33] = test: Induction of cell cycle arrest in human HepG2 cells assessed as accumulation of cells at G0/G1 phase at antiproliferative IC50 by PI staining based flow cytometric analysis (reference value: 51.88%); type: functional

Chain of Vascular endothelial growth factor receptor 2 (P35968 whole entry): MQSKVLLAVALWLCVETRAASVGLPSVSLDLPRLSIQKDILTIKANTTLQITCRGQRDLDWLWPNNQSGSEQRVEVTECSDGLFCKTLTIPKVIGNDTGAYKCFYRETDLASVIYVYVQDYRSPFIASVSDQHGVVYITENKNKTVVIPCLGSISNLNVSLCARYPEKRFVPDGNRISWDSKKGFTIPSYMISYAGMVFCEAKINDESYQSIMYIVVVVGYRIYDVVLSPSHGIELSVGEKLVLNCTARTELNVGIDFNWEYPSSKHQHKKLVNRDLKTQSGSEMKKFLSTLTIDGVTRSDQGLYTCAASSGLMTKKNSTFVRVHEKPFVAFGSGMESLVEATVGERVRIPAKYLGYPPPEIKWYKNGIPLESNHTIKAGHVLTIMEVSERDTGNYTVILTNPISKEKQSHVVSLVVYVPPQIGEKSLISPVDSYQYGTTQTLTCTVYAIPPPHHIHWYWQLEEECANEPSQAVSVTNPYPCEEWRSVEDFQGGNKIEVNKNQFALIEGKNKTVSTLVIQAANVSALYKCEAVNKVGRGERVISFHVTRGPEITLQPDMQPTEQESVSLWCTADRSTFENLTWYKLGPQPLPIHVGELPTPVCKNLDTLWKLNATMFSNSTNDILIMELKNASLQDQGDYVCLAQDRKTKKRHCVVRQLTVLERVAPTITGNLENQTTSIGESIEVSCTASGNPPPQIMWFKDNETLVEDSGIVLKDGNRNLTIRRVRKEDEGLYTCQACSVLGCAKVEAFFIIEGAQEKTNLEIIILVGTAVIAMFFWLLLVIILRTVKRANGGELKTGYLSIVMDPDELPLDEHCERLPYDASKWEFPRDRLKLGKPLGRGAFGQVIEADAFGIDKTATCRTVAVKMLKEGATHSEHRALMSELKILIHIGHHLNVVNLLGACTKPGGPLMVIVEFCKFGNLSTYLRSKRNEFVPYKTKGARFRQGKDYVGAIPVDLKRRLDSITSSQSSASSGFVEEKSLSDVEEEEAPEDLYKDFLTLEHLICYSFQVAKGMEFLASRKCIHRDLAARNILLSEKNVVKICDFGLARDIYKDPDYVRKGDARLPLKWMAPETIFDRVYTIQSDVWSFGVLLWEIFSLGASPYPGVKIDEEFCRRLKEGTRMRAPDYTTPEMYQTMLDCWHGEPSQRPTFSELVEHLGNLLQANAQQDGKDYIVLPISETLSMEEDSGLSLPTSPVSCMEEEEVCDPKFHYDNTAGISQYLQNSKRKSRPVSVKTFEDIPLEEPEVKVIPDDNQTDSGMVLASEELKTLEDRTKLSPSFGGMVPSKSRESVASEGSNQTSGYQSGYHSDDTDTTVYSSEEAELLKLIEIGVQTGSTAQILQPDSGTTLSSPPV
Chain of DNA topoisomerase 2-beta (Q02880 whole entry): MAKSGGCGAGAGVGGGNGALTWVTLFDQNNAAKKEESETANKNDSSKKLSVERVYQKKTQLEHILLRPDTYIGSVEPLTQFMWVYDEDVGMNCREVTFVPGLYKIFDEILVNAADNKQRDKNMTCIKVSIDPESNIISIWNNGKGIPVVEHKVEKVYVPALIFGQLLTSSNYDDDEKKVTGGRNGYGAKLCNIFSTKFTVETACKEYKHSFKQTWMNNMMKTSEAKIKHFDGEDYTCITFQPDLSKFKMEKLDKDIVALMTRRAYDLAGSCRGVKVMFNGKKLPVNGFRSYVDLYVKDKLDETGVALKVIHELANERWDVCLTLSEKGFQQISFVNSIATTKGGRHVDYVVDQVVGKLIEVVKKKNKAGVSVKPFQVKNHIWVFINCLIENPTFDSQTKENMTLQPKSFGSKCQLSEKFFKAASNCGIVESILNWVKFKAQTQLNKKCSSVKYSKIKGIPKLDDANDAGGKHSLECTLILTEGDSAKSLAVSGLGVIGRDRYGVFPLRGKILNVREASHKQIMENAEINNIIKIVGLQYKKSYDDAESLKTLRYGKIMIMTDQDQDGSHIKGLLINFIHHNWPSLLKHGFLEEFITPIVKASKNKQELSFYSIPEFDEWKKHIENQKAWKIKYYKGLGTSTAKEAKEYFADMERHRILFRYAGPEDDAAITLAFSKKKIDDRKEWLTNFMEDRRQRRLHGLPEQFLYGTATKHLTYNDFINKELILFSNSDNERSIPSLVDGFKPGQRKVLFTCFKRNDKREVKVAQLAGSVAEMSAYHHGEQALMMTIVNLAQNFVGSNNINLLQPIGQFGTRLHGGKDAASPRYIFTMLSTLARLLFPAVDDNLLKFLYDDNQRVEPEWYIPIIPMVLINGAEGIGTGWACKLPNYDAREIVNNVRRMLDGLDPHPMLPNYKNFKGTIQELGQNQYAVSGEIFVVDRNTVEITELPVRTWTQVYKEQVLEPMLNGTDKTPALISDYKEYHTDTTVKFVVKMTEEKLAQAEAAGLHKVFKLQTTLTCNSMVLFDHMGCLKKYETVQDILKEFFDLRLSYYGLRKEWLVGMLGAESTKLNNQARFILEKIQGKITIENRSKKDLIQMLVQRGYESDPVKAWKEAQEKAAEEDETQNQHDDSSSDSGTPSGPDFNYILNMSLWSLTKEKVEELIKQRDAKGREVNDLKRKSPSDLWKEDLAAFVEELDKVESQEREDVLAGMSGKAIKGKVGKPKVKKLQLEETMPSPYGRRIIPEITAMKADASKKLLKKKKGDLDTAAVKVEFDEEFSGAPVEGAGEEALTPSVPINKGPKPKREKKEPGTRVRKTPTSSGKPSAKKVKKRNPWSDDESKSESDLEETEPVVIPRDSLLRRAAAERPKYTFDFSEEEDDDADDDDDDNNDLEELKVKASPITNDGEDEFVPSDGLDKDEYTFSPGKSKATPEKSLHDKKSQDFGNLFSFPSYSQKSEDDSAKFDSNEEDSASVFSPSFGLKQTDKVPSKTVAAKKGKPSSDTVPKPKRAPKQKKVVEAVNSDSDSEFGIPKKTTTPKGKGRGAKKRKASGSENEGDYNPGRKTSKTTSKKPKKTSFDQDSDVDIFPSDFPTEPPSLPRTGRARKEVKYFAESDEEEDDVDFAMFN
Chain of Epidermal growth factor receptor (P00533 whole entry): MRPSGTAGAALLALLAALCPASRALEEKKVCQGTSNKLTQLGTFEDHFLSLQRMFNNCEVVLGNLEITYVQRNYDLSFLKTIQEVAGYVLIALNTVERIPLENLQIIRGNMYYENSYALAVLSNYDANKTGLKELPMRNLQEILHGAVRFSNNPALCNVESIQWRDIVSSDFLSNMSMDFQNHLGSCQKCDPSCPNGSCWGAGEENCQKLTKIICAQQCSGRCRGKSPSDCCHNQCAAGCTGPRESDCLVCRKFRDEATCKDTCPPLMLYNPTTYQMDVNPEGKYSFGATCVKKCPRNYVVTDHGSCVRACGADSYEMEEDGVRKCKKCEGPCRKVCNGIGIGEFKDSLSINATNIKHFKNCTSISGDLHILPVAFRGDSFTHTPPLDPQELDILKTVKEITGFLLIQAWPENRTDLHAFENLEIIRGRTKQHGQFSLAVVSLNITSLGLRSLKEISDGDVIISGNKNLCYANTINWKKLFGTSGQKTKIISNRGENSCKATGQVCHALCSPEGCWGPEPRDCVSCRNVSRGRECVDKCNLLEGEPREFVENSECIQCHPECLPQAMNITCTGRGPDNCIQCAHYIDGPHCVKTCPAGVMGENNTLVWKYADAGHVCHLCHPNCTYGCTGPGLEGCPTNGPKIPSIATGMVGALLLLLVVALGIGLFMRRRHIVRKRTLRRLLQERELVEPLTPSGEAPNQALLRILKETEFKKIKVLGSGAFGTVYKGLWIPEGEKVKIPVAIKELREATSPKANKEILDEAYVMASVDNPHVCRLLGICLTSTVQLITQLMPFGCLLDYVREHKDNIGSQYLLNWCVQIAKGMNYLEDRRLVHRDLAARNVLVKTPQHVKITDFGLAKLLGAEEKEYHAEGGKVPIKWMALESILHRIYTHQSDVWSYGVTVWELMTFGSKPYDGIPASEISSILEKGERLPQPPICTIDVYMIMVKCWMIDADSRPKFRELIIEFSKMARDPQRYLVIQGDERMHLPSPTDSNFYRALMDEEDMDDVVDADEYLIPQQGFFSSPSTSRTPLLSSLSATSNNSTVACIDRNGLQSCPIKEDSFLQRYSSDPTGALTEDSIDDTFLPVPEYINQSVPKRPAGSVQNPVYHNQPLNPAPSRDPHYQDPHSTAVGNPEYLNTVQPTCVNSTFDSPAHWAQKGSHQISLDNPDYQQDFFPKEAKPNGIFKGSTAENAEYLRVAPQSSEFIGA

Cc1cc(NC2=NC(=O)/C(=C\c3c4ccccc4cc4ccccc34)S2)no1
Activity (HepG2 [1]): 24.96% | Activity (HepG2 [2]): 1.77% | Activity (HepG2 [3]): 1.55% | Activity (HCT-116 [4]): 42.89% | IC50 [5]: 0.054 µM | Activity (HCT-116 [6]): 5.23% | Activity (MCF7 [7]): 16.41% | IC50 [8]: 0.087 µM | Activity (HepG2 [9]): 36.93% | IC50 (HepG2 [10]): 6.86 µM | IC50 [11]: 0.171 µM | Activity (HepG2 [12]): 13.3% | fold change (FC) (HepG2 [13]): 4.1 | fold change (FC) (MCF7 [14]): 7 | IC50 (Tubulin): 3.61 µM | Activity (HCT-116 [15]): 22.69% | IC50 (WI-38): 38.6 µM | Activity (HepG2 [16]): 3.51% | fold change (FC) (MCF7 [17]): 0.62 | Activity (MCF7 [18]): 44.25% | Activity (MCF7 [19]): 29.3% | IC50 (DNA topoisomerase 2-beta): 0.13 µM | Activity (HCT-116 [20]): 27.44% | fold change (FC) (HCT-116 [21]): 6.9 | Activity (HCT-116 [22]): 15.19% | Activity (MCF7 [23]): 26.41% | inhibition [24]: 76.3% | Activity (MCF7 [25]): 2.31% | fold change (FC) (HepG2 [26]): 0.56 | Activity (HepG2 [27]): 2.18% | Activity (HepG2 [28]): 8% | IC50 (MCF7 [29]): 6.38 µM | Activity (MCF7 [30]): 2.08% | IC50 (WISH): 53.2 µM | fold change (FC) (MCF7 [31]): 4.7 | fold change (FC) (HCT-116 [32]): 0.64 | inhibition (Tubulin (Homo sapiens)): 57.7% | Activity (HepG2 [33]): 38.11%
